Laboratory results reported in US5843992A, “Epoxysuccinic acid derivatives” (Nippon Chemiphar Co., Ltd., priority 1995, dated 1998).
pIC50: −log10 of the molar value. Where two headings read alike, the source gives them in different places.

How the values were obtained:
cathepsin B [1] = target: T1, cathepsin B (Rattus norvegicus, UniProt P00787); conditions: 10^-7 M CA-074, pH 5.5, Z-Phe-Arg-MCA; cited from earlier work
T1 construct: Preparation of Rat Liver Lysosome Fraction; from tissue; host or cells: rat liver lysosome fraction (male Wistar rat)

cathepsin B [2] = target: T1, cathepsin B; test: Cathepsin B inhibitory action (lysosome fraction, Z-Arg-Arg-MCA); assay type: biochemical, rat (Wistar); conditions: pH 6.0, 30° C.; read-out: Cathepsin B Inhibition (IC50)
Protocol: Male rat of Wistar strain was killed by exsangulnation and a ice-chilled physiological saline was introduced into portal vein for circulation. Then, its liver was taken out. Thereafter, the following procedures were performed at 4° C.
The liver was minced by scissors. Five grams of minced liver were homogenized in a Potter type Teflon Homogenizer after addition of 0.25M aqueous sucrose solution in a volume as much as nine times. The homogenized mixture was centrifuged for 10 minutes at 800 G. The resulting supernatant was further centrifuged at 12,000 G for 20 minutes. The precipitate was homogenized in 25 mL of 0.25M aqueous sucrose solution, and then centrifuged for 20 minutes at 12,000 G. The resulting precipitate was further homogenized after 100 mL of 0.25M aqueous sucrose solution. Thus, a lysosome fraction was obtained.
To 0.25 mL of a solution (pH: 6.0) containing 352 mM KH2 PO4, 48 mM Na2 HPO4, 5.32 mM EDTA.2 Na and 10 mM L-cysteine were added 0.1 mL of the lysosome fraction, 5 μL of the test compound solution, and 0.545 mL of distilled water. The mixture was preincubated at 30° C. for 15 minutes. Thereafter, the reaction was started by the addition of 0.1 mL of a solution of 50 μM carbobenzoxy-L-arginine-L-arginine-4-methylcoumaryl-7-amide (Z-Arg-Arg-MCA, substrate). The reaction was performed at 30° C. for 20 minutes, and then terminated by addition of 1 mL of an aqueous solution (pH: 4.3) containing 100 mM sodium monochloroacetate, 30 mM sodium acetate and 70 mM acetic acid. The finally obtained solution was subjected to measurement of fluorescence strength (excitation wavelength: 380 nm, emission wavelength: 460 nm).

cathepsin L = cathepsin L (Rattus norvegicus, UniProt P07154); test: Cathepsin L inhibitory action (rat liver lysosome fraction, Z-Phe-Arg-MCA); assay type: biochemical, rat (Wistar); conditions: pH 5.5, 30° C., in the presence of 10^-7 M CA-074; read-out: Cathepsin L Inhibition IC50
[3] = test system: ICR mouse calvaria (bone resorption); test: Bone resorption inhibitory activity (PTH-stimulated calcium release from mouse calvaria); assay type: cell-based; conditions: read-out: Bone Resorption Inhibition, inhibition ratio (%)
Protocol: From ICR mouse (age: 6 to 7 days), calvaria was taken under aseptic conditions. The calvaria was divided along the median line into two parts after its connective tissue was removed. In a culture medium (modified BGjb medium, containing 5% inactivated bovine fetal serum) in an amount of 1 mL per a pair of bones, a pre-culture was performed for 24 hours under the conditions of 5% CO2 and 37° C. After the pre-culture was complete, each one of bone was placed in 0.5 mL of the same culture medium containing the test compound of different concentration, and cultured for 72 hours in the presence of 3×10^-7 M parathyroid hormone (PTH). For the control, culture was performed in the same manner except for using neither test compound nor PTH.
After the culture was complete, the amount of calcium released in the supernatant of the culture medium in the 72 hour culture as well as the amount of calcium contained in the bone (dissolved in 1 mL of 6N hydrochloric acid) were determined by ortho-cresol phthalein complexon (OCPC) method.
The calcium release ratio (%) was calculated according to the following equation: [formula]
The inhibition ratio (%) of bone resorption by the test compound was calculated according to the following equation: [formula]

[4] = Concentration of Test Comp. 10^-4 M, 72 hours, 3×10^-7 M PTH
[5] = Concentration of Test Comp. 10^-5 M, 72 hours, 3×10^-7 M PTH
[6] = Concentration of Test Comp. 10^-6 M, 72 hours, 3×10^-7 M PTH

T1 sequence (P00787 80-339): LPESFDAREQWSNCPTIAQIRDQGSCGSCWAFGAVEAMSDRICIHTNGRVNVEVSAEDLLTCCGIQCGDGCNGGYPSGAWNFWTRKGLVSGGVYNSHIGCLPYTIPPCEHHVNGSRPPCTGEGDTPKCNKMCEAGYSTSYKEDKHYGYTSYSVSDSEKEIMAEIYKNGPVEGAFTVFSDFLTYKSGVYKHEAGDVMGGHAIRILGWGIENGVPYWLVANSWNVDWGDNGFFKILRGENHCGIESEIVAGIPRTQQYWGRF
cathepsin L, sequence (P07154 114-334): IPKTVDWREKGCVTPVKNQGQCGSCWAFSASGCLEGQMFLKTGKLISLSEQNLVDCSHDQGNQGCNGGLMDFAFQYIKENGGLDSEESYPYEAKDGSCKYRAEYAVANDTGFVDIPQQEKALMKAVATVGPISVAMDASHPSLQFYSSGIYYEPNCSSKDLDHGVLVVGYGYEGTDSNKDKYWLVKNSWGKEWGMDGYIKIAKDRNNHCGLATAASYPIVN

| SMILES | cathepsin B activity inhibition (cathepsin B [1]) | pIC50 (cathepsin B [2]) | pIC50 (cathepsin L) | inhibition at 1 µM ([3]; 72 h) [%] | inhibition at 10 µM ([3]; 72 h) [%] | inhibition at 100 µM ([3]; 72 h) [%] | inhibition at 100 µM [3, 4] [%] | inhibition at 10 µM [3, 5] [%] | inhibition at 1 µM [3, 6] [%] |
| --- | --- | --- | --- | --- | --- | --- | --- | --- | --- |
| CCCNC(=O)[C@H]1O[C@@H]1C(=O)N[C@H](C(=O)N1CCC[C@H]1C(=O)O)[C@@H](C)CC [CA-074] | completely inhibited | – | – | – | – | – | – | – | – |
| CC(C)CCC(CCC(C)C)NC(=O)[C@H]1O[C@@H]1C(=O)O | – | 6.51 | 7.72 | 63 | 87 | 82 | – | – | – |
| CC(C)CCNC(=O)[C@H]1O[C@@H]1C(=O)O (relative stereo) [Comparison X, reference compound] | – | – | 7.11 | – | – | – | 66 | 40 | 25 |
| O=C(O)[C@H]1O[C@@H]1C(=O)NCc1ccccc1 (relative stereo) [Comparison Y, reference compound] | – | – | 6.46 | – | – | – | 44 | 38 | 21 |
| O=C(O)[C@H]1O[C@@H]1C(=O)NC(Cc1ccccc1)Cc1ccccc1 | – | 6.70 | – | – | – | – | – | – | – |
| O=C(O)[C@H]1O[C@@H]1C(=O)NC(c1ccccc1)c1ccccc1 | – | 6.64 | 6.62 | 90 | 82 | 95 | – | – | – |
